# In patent publication US11254663B2 (BRISTOL-MYERS SQUIBB COMPANY, priority 2019, dated 2022):
# Target: FXR (Homo sapiens (Human), UniProt Q96RI1)
# Test: FXR EC50 (FXR agonist potency reported with each Example)
# Format: cell-based
# Sequence of FXR (Q96RI1 262-486): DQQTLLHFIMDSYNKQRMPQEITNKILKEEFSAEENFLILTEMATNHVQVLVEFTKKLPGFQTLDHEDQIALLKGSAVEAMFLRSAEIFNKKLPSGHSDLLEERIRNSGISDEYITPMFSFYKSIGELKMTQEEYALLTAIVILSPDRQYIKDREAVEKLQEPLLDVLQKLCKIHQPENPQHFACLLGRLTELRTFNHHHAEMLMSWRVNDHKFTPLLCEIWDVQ
row,SMILES,EC50 [nM]
1,"CCOc1nnc(-c2cccc(N(CC34CCC(c5nc(C6CC6)no5)(CC3)CC4)C(=O)C3CC(C(F)F)C3)c2)o1 (stereo not drawn) [Example 56, N-((4-(3-cyclopropyl-1,2,4-oxadiazol-5-yl)bicyclo[2.2.2]octan-1-yl)methyl)-3-(difluoromethyl)-N-(3-(5-ethoxy-1,3,4-oxadiazol-2-yl)phenyl)cyclobutane-1-carboxamide]",275
2,"O=C(C1CCC1)N(CC12CCC(c3nc(C4CC4)no3)(CC1)CC2)c1cccc(-c2nc(CC3CC3)no2)c1 [Example 66, N-((4-(3-cyclopropyl-1,2,4-oxadiazol-5-yl)bicyclo[2.2.2]octan-1-yl)methyl)-N-(3-(3-(cyclopropylmethyl)-1,2,4-oxadiazol-5-yl)phenyl)cyclobutanecarboxamide]",303
3,"CCc1noc(-c2cccc(N(CC34CCC(c5nc(C6CC6)no5)(CC3)CC4)C(=O)C3CC(C(F)F)C3)c2)n1 (stereo not drawn) [Example 4, N-((4-(3-cyclopropyl-1,2,4-oxadiazol-5-yl)bicyclo[2.2.2]octan-1-yl)methyl)-3-(difluoromethyl)-N-(3-(3-ethyl-1,2,4-oxadiazol-5-yl)phenyl)cyclobutane-1-carboxamide]",322
4,"O=C(C1CC(C(F)F)C1)N(CC12CCC(c3nc(C4CC4)no3)(CC1)OC2)c1cccc(-c2cc(C3CC3)on2)c1 (stereo not drawn) [Example 201, N-((1-(3-cyclopropyl-1,2,4-oxadiazol-5-yl)-2-oxabicyclo[2.2.2]octan-4-yl)methyl)-N-(3-(5-cyclopropylisoxazol-3-yl)phenyl)-3-(difluoromethyl)cyclobutane-1-carboxamide]",384
5,"N#CC1(c2ccc(C34CCC(CN(C(=O)C56CC(F)(C5)C6)c5cccc(-c6nc(C7CC7)no6)c5)(CC3)CO4)cc2)CC1 [Example 143, N-((1-(4-(1-cyanocyclopropyl)phenyl)-2-oxabicyclo[2.2.2]octan-4-yl)methyl)-N-(3-(3-cyclopropyl-1,2,4-oxadiazol-5-yl)phenyl)-3-fluorobicyclo[1.1.1]pentane-1-carboxamide]",89
6,"CCc1noc(-c2cccc(N(CC34CCC(c5nc(C6CC6)no5)(CC3)CC4)C(=O)[C@H]3C[C@](O)(C(F)(F)F)C3)c2)n1 [Example 5, (1s, 3s)-N-((4-(3-cyclopropyl-1,2,4-oxadiazol-5-yl)bicyclo[2.2.2]octan-1-yl)methyl)-N-(3-(3-ethyl-1,2,4-oxadiazol-5-yl)phenyl)-3-hydroxy-3-(trifluoromethyl)cyclobutane-1-carboxamide]",182
7,"O=C(N(CC12CCC(c3noc(C4CC4(F)F)n3)(CC1)CC2)c1cccc(-c2nc(C3CC3)no2)c1)C12CC(F)(C1)C2 (stereo not drawn) [Example 123, N-(3-(3-cyclopropyl-1,2,4-oxadiazol-5-yl)phenyl)-N-((4-(5-(2,2-difluorocyclopropyl)-1,2,4-oxadiazol-3-yl)bicyclo[2.2.2]octan-1-yl)methyl)-3-fluorobicyclo[1.1.1]pentane-1-carboxamide]",73
8,"O=C(N(CC12CCC(c3cc(C(F)(F)F)ccn3)(CC1)CC2)c1cccc(-c2nc(C3CC3)no2)c1)C12CC(F)(C1)C2 [Example 50, N-(3-(3-cyclopropyl-1,2,4-oxadiazol-5-yl)phenyl)-3-fluoro-N-((4-(4-(trifluoromethyl)pyridin-2-yl)bicyclo[2.2.2]octan-1-yl)methyl)bicyclo[1.1.1]pentane-1-carboxamide]",462
9,"O=C(C1CC(F)(F)C1)N(CC12CCC(c3nnc(C4CC4)o3)(CC1)CC2)c1cccc(-c2nnc(C3CC3)o2)c1 [Example 135, N-((4-(5-cyclopropyl-1,3,4-oxadiazol-2-yl)bicyclo[2.2.2]octan-1-yl)methyl)-N-(3-(5-cyclopropyl-1,3,4-oxadiazol-2-yl)phenyl)-3,3-difluorocyclobutane-1-carboxamide]",1110
10,"CC1(c2nc(-c3cccc(N(CC45CCC(c6noc(C(F)F)n6)(CC4)CC5)C(=O)C45CC(F)(C4)C5)c3)no2)CC1 [Example 178, N-((4-(5-(difluoromethyl)-1,2,4-oxadiazol-3-yl)bicyclo[2.2.2]octan-1-yl)methyl)-3-fluoro-N-(3-(5-(1-methylcyclopropyl)-1,2,4-oxadiazol-3-yl)phenyl)bicyclo[1.1.1]pentane-1-carboxamide]",73
11,"CCc1noc(-c2cccc(N(CC34CCC(c5nc(C6CC6)no5)(CC3)CC4)C(=O)C34CC(F)(C3)C4)c2)n1 [Example 6, N-((4-(3-cyclopropyl-1,2,4-oxadiazol-5-yl)bicyclo[2.2.2]octan-1-yl)methyl)-N-(3-(3-ethyl-1,2,4-oxadiazol-5-yl)phenyl)-3-fluorobicyclo[1.1.1]pentane-1-carboxamide]",135

# The remaining lines, values ahead:
row,EC50 [nM],SMILES
1,828,"CC(C)(C)c1nc(-c2cccc(N(CC34CCC(c5cnc(C(F)(F)F)nc5)(CC3)OC4)C(=O)C34CC(F)(C3)C4)c2)no1 [Example 181, N-(3-(5-(tert-butyl)-1,2,4-oxadiazol-3-yl)phenyl)-3-fluoro-N-((1-(2-(trifluoromethyl)pyrimidin-5-yl)-2-oxabicyclo[2.2.2]octan-4-yl)methyl)bicyclo[1.1.1]pentane-1-carboxamide]"
2,18,"CC(C)(C)c1nc(-c2cccc(N(CC34CCC(c5noc(C(C)(C)C)n5)(CC3)CC4)C(=O)C34CC(F)(C3)C4)c2)no1 [Example 183, N-((4-(5-(tert-butyl)-1,2,4-oxadiazol-3-yl)bicyclo[2.2.2]octan-1-yl)methyl)-N-(3-(5-(tert-butyl)-1,2,4-oxadiazol-3-yl)phenyl)-3-fluorobicyclo[1.1.1]pentane-1-carboxamide]"
3,69,"Cn1nc(C23CCC(CN(C(=O)C45CC(F)(C4)C5)c4cccc(-c5noc(C(C)(C)C)n5)c4)(CC2)CC3)cc1C1CC1 [Example 167, N-(3-(5-(tert-butyl)-1,2,4-oxadiazol-3-yl)phenyl)-N-((4-(5-cyclopropyl-1-methyl-1H-pyrazol-3-yl)bicyclo[2.2.2]octan-1-yl)methyl)-3-fluorobicyclo[1.1.1]pentane-1-carboxamide]"
4,824,"CC1(C(=O)N(CC23CCC(c4nc(C(C)(C)C)no4)(CC2)CC3)c2cccc(-c3nc(C4CC4)no3)c2)COC1 [Example 191, N-((4-(3-(tert-butyl)-1,2,4-oxadiazol-5-yl)bicyclo[2.2.2]octan-1-yl)methyl)-N-(3-(3-cyclopropyl-1,2,4-oxadiazol-5-yl)phenyl)-3-methyloxetane-3-carboxamide]"
5,156,"CC(C)c1nc(-c2cccc(N(CC34CCC(c5cc(C6CC6)nn5C)(CC3)CC4)C(=O)C34CC(F)(C3)C4)c2)no1 [Example 163, N-((4-(3-cyclopropyl-1-methyl-1H-pyrazol-5-yl)bicyclo[2.2.2]octan-1-yl)methyl)-3-fluoro-N-(3-(5-isopropyl-1,2,4-oxadiazol-3-yl)phenyl)bicyclo[1.1.1]pentane-1-carboxamide]"
6,1040,"O=C(N(CC12CCC(c3nc(C4CC4)no3)(CC1)CC2)c1cccc(-c2noc(C34CC(F)(C3)C4)n2)c1)C12CC(F)(C1)C2 [Example 102, N-((4-(3-cyclopropyl-1,2,4-oxadiazol-5-yl)bicyclo[2.2.2]octan-1-yl)methyl)-3-fluoro-N-(3-(5-(3-fluorobicyclo[1.1.1]pentan-1-yl)-1,2,4-oxadiazol-3-yl)phenyl)bicyclo[1.1.1]pentane-1-carboxamide]"
7,25,"CCOc1ncc(-c2cccc(N(CC34CCC(c5ccc(C(C)(C)C#N)cc5)(CC3)OC4)C(=O)C34CC(F)(C3)C4)c2)o1 [Example 51, N-((1-(4-(2-cyanopropan-2-yl)phenyl)-2-oxabicyclo[2.2.2]octan-4-yl)methyl)-N-(3-(2-ethoxyoxazol-5-yl)phenyl)-3-fluorobicyclo[1.1.1]pentane-1-carboxamide]"
8,89,"Cn1nc(C23CCC(CN(C(=O)C45CC(F)(C4)C5)c4cccc(-c5nc(C6CC6)no5)c4)(CC2)CC3)cc1C1CC1 [Example 124, N-(3-(3-cyclopropyl-1,2,4-oxadiazol-5-yl)phenyl)-N-((4-(5-cyclopropyl-1-methyl-1H-pyrazol-3-yl)bicyclo[2.2.2]octan-1-yl)methyl)-3-fluorobicyclo[1.1.1]pentane-1-carboxamide]"
9,219,"CCOc1cc(-c2cccc(N(CC34CCC(c5nc(C6CC6)no5)(CC3)CC4)C(=O)C34CC(F)(C3)C4)c2)ccn1 [Example 226, N-((4-(3-cyclopropyl-1,2,4-oxadiazol-5-yl)bicyclo[2.2.2]octan-1-yl)methyl)-N-(3-(2-ethoxypyridin-4-yl)phenyl)-3-fluorobicyclo[1.1.1]pentane-1-carboxamide]"
10,218,"Cn1nc(C2CC2)cc1C12CCC(CN(C(=O)C34CC(F)(C3)C4)c3cncc(-c4nc(C5CC5)no4)c3)(CC1)CC2 [Example 205, N-(5-(3-cyclopropyl-1,2,4-oxadiazol-5-yl)pyridin-3-yl)-N-((4-(3-cyclopropyl-1-methyl-1H-pyrazol-5-yl)bicyclo[2.2.2]octan-1-yl)methyl)-3-fluorobicyclo[1.1.1]pentane-1-carboxamide]"
11,86,"CC(C)(C)c1noc(C23CCC(CN(C(=O)C45CC(F)(C4)C5)c4cccc(-c5nc(C6CC6)no5)c4)(CC2)CC3)n1 [Example 88, N-((4-(3-(tert-butyl)-1,2,4-oxadiazol-5-yl)bicyclo[2.2.2]octan-1-yl)methyl)-N-(3-(3-cyclopropyl-1,2,4-oxadiazol-5-yl)phenyl)-3-fluorobicyclo[1.1.1]pentane-1-carboxamide]"
12,571,"CC(C)(C)c1noc(C23CCC(CN(C(=O)C45CC(F)(C4)C5)c4cncc(-c5nc(C6CC6)no5)c4)(CC2)CC3)n1 [Example 207, N-((4-(3-(tert-butyl)-1,2,4-oxadiazol-5-yl)bicyclo[2.2.2]octan-1-yl)methyl)-N-(5-(3-cyclopropyl-1,2,4-oxadiazol-5-yl)pyridin-3-yl)-3-fluorobicyclo[1.1.1]pentane-1-carboxamide]"
13,322,"O=C(N1CCCC1)N(CC12CCC(c3nc(C4CC4)no3)(CC1)CC2)c1cccc(-c2nc(C3CC3)no2)c1 [Example 91, N-((4-(3-cyclopropyl-1,2,4-oxadiazol-5-yl)bicyclo[2.2.2]octan-1-yl)methyl)-N-(3-(3-cyclopropyl-1,2,4-oxadiazol-5-yl)phenyl)pyrrolidine-1-carboxamide]"
